Patent publication US20100273752A1, “MEQUITAZINE FOR TREATING OR PREVENTING PATHOLOGIES INVOLVING HISTAMINE H4 RECEPTORS” (PIERRE FABRE MEDICAMENT, priority 2007, published 2010)
Several values for one entry are separate records, joined by “and”; a condition that tells them apart may be missing. Equal entries are not always repeated.

Experiments:
[1] = system: plantar edema induced by histamine; assay: Plantar edema induced by histamine in the mouse, oral administration; type: in vivo; details: for Inhibition of inflammation (%): 3 mg/kg oral; for Anti-inflammatory activity, range over pretreatment times: oral, 120, 90, 60 and 30 minutes beforehand
Description: The goal of this experiment was to detect possible anti-inflammatory activity of […], […] and […] with respect to plantar edema induced by histamine in the mouse. The principle of the test is inspired by the publication of Kreutner et al. (2000). All groups were composed of 10 animals. The products were administered by oral route (25 ml/kg) in pretreatment, at various times: 120, 90, 60 and 30 minutes before the inflammation-producing agent. Sixty minutes later, an injection (10 μl) in the paw was given under isoflurane anesthesia. The right paw received 13 μg of histamine dihydrochloride and the left paw physiological saline solution (histamine vehicle). Thirty minutes after the injections, the animals were euthanized by cervical dislocation. The paws were sampled and weighed. The edemas were quantified by the difference between the weights of the paws (weight of right paw-weight of left paw).

[2] = system: histamine-induced bronchoconstriction; assay: Histamine-induced bronchoconstriction, Konzett model, intravenous administration; type: in vivo, guinea pig
Description: The goal of these experiments is to evaluate the activity of the three compounds […] and […] with respect to histamine-induced bronchoconstriction in the Konzett (1940) guinea pig model. Previously we saw that the three compounds exerted antihistamine activity with respect to H4 receptor in vitro, while on the other hand in vivo only […] and […] appeared anti-inflammatory when the inflammation is generated by histamine. It seems that […] loses its activity when it is administered by oral route. With an aim of analyzing the activity by intravenous route of the three products, the following test was conducted. The animals are ventilated, by means of a constant pressure respiratory pump, by a volume of air in excess. […] The variations observed represent changes in bronchial tonus. Histamine-induced bronchoconstriction causes an increase in the excess volume measured by the sensor. The various compounds are administered by way of the jugular vein, which is catheterized beforehand. Histamine stimulation is then carried out by intravenous route at a dose of 7 μg/kg.

[3] = Transcutaneous passage through human skin explants in dynamic diffusion chamber; type: in vitro ADME
From the text: The importance of H4 receptor in pruritus was recently established. Thus, an antagonist targeting the histamine H4 receptors involved in dermatological pruritus can constitute a weapon of choice for breaking behaviors related to pruritus and, consequently, for avoiding superinfections generated by the skin lesions caused by pruritus. […] To this end, it is useful to have an H4 antihistamine likely to cross the cutaneous barrier in order to reach its target on subcutaneous mast cells. […] Human skin explants were placed in a dynamic diffusion chamber (diffusion area of 0.636 cm^2), with the dermis in contact with the receptor medium (water; 0.9% NaCl 0.9% NaN3 0.1%/ethanol; 75/25; v/v). The flow rate is 1.5 ml/h. The study is carried out at 32° C. The solution containing the compound (500 μl to 2.5 mg/ml, or 10 μCi per cell) is deposited at T=0. The study of transcutaneous passage is carried out under occlusion. The receiving liquid is sampled at 3, 6, 9, 12, 16, 20 and 24 hours.

[4] = system: bronchoconstriction induced by acetylcholine; assay: Inhibition of acetylcholine-induced bronchoconstriction in anaesthetized ventilated guinea pigs; type: in vivo, guinea pig
Description: Guinea pigs are anaesthetized and artificially ventilated. The air penetrating the lungs is measured by means of a sensor. Each inspiration is thus quantified. Bronchoconstriction is then induced by intravenous injection of acetylcholine. The effect of acetylcholine is a direct and immediate modification of bronchial tonus. The bronchoconstriction effects of acetylcholine are evaluated in mm at the peak of the effects.

respiratory functions = assay: Effects on respiratory functions after oral administration in male Wistar rats; type: in vivo, rat; details: for Pupil diameter: rat, in vivo
Description: The effects of […] (0.5, 50 and 100 mg/kg) on respiratory functions are analyzed after oral (per os) administration in male Wistar rats (8 rats/dose). […] (100 mg/kg) administered under the same conditions is used as a reference substance. Theophylline (100 mg/kg), administered under the same experimental conditions, is used as a reference substance. Carboxymethyl cellulose (0.5%) in distilled water is used as a control vehicle. At the end of the testing period (i.e., 360 minutes after administration of the dose), the behavior of the animals as well as the diameter of their pupils (miosis/mydriasis) are evaluated. Blood samples are taken from each rat (except those pertaining to the theophylline group) in order to analyze the concentration of the substance in the blood. […]

H4 receptor = H4 receptor (Homo sapiens, UniProt Q9H3N8); assay: G protein activation test ([35S] GTP binding); details: for Effect on G protein activation induced by histamine: 0.1 μM histamine, FIG. 1a; for Functional character at H4 receptor (basal activity in the absence of agonist): FIG. 1b
histamine H4 receptor [5] = biological target: T1, histamine H4 receptor (Homo sapiens, UniProt Q9H3N8); assay: Affinity constants by competition with tritiated histamine on membrane preparations from CHO cells expressing H4 receptor; type: binding; parameters: expressed in transfected cells; host or cells: CHO; details: CHO cell membranes
From the text: In a second series of experiments, the affinity constants of these three compounds are precisely determined by competition with the tritiated histamine radioligand on membrane preparations from CHO cells expressing in a stable manner histamine H4 receptor.

histamine H4 receptor [6] = biological target: T1, histamine H4 receptor; assay: Receptor binding in vitro, HEK-293 cells stably transfected with human H4 receptor, 10 nM tritiated histamine; parameters: expressed in transfected cells; host or cells: HEK-293; details: for inhibition at 10 µM: compounds tested at 10 μM, 10 nM tritiated histamine, HEK-293 cells
Description: The goal of this study is to determine an affinity constant of the compound with respect to human histamine H4 receptor in vitro. The model chosen is HEK-293 cells transfected in a stable fashion by cDNA coding for human H4 receptor (Liu et al., 2001). First is determined the affinity of cells expressing each type of receptor for a ligand for which it was also established that it bound 100% to the receptor. The optimal ligand for the recombinant receptor is 10 nM tritiated histamine. Receptor binding is defined as follows: the difference between total binding and the nonspecific binding determined in the presence of excess cold ligand. The results are expressed as a percentage of optimal binding obtained with the ligand model (100%).

T1 sequence (Q9H3N8 whole entry): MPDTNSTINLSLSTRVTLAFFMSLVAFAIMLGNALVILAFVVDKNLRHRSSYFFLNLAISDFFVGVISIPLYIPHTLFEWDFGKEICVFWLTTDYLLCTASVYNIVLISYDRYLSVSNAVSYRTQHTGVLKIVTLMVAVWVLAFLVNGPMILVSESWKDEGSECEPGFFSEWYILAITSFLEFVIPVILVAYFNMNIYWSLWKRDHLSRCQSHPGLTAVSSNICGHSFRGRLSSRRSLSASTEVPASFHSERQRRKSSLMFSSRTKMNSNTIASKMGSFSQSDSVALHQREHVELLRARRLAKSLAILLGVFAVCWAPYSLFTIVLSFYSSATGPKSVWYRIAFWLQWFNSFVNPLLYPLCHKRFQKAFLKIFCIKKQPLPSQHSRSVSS
Sequence of H4 receptor (Q9H3N8 whole entry): as above

Structure (SMILES) | Inhibition of inflammation (%) ([1]; pretreatment −30 min) | Inhibition of inflammation (%) ([1]; pretreatment −60 min) | Inhibition of inflammation (%) ([1]; pretreatment −90 min) | Inhibition of inflammation (%) ([1]; pretreatment −120 min) | Anti-inflammatory activity, range over pretreatment times [1] | Inhibition at 5 min (%) ([2]; 12.5 mg/kg i.v.) | Inhibition at 30 min (%) ([2]; 12.5 mg/kg i.v.) | Inhibition at 5 min (%) ([2]; 25 mg/kg i.v.) | Inhibition at 30 min (%) ([2]; 25 mg/kg i.v.) | Inhibition at 5 min (%) ([2]; 37.5 mg/kg i.v.) | Inhibition at 30 min (%) ([2]; 37.5 mg/kg i.v.) | Inhibition at 5 min (%) ([2]; 50 mg/kg i.v.) | Inhibition at 30 min (%) ([2]; 50 mg/kg i.v.) | Percentage of inhibition (%) ([4]; dose 25 μg/kg) | Percentage of inhibition (%) ([4]; dose 50 μg/kg) | Percentage of inhibition (%) ([4]; dose 100 μg/kg) | Effect on G protein activation induced by histamine (H4 receptor) | Functional character at H4 receptor (basal activity in the absence of agonist) (H4 receptor) | Ki (histamine H4 receptor [5]) | Binding to human histamine H4 receptors (in words) (histamine H4 receptor [6]) | other results
c1ccc2c(c1)Sc1ccccc1N2CC1CN2CCC1CC2 (racemic) [L0013, 10-[(3R,3S)-1-azabicyclo[2.2.2]oct-3-ylmethyl]-10H-phenothiazine] | −54% | −65% | −82% | −80% | −54% to −82% | −35 ± 6% | −39 ± 7% | −35 ± 5% | −61 ± 5% | −26 ± 4% | −51 ± 8% | −37 ± 5% | −57 ± 7% | −8 ± 1% | −25 ± 2% | −24 ± 6% | antagonize the activating action | inverse agonists | 1630 ± 200 nM | strongly bind | Accumulated quantity in receiving liquid (receptor zone) at 24 hours ([3]; 24 hours): 107 μg/cm^2 and 107±28 μg/cm^2; Nearly constant maximum flow ([3]; human, 2.5 mg/ml): 5.4 μg/cm^2/h; Time at which nearly constant maximum flow is reached ([3]; human, 2.5 mg/ml): 16 h; Amount of compound in dermis ([3]; human, 24 h, 2.5 mg/ml): 45±14 μg/cm^2; Amount of compound in epidermis ([3]; human, 24 h, 2.5 mg/ml): 56±17 μg/cm^2; Total amount of compound in skin (epidermis and dermis) ([3]; human, 24 h, 2.5 mg/ml): 101 μg/cm^2; Transcutaneous passage ([3]; human, 24 h, 2.5 mg/ml): approx. 100 μg/cm^2/24 h; Change in respiratory rate (respiratory functions; 100 mg/kg p.o., at 60 minutes): +80%; Change in respiratory volume (respiratory functions; 100 mg/kg p.o., at 60 minutes): −26%; Change in relaxation time (respiratory functions; 100 mg/kg p.o., at 120 minutes): −30%; Pupil diameter (respiratory functions): appreciable increase
CN1[C@@H]2CC[C@H]1C[C@@H](OC(=O)C(CO)c1ccccc1)C2 (some centres unmarked) [Atropine, reference compound] |  |  |  |  |  |  |  |  |  |  |  |  |  |  |  |  |  |  |  |  | Percentage of inhibition (%) ([4]; dose 5 μg/kg): −76 ± 8%
Cn1c(=O)c2[nH]cnc2n(C)c1=O [Theophylline, reference compound] |  |  |  |  |  |  |  |  |  |  |  |  |  |  |  |  |  |  |  |  | Change in peak flow of expiration (respiratory functions; 100 mg/kg p.o., at 60 minutes): +121%; Change in peak flow of inspiration (respiratory functions; 100 mg/kg p.o., at 60 minutes): +116%; Change in relaxation time (respiratory functions; 100 mg/kg p.o., at 60 minutes): −61%; Change in respiratory rate (respiratory functions; 100 mg/kg p.o., at 60 minutes): +223%; Change in time of expiration (respiratory functions; 100 mg/kg p.o., at 60 minutes): −63%; Change in time of inspiration (respiratory functions; 100 mg/kg p.o., at 60 minutes): −60%; Change in respiratory volume (respiratory functions; 100 mg/kg p.o., at 120 minutes): −17%; Change in 'improves respiratory pause' parameter (respiratory functions; 100 mg/kg p.o., at 300 minutes): −37%; Change in respiratory pause (respiratory functions; 100 mg/kg p.o., at 300 minutes): −20%; Behavior and signs of morbid state (respiratory functions; 360 minutes post-administration, V0114 0.5, 50 and 100 mg/kg, L0013 and theophylline 100 mg/kg): no change of behavior or signs of morbid state
c1ccc2c(c1)Sc1ccccc1N2C[C@@H]1CN2CCC1CC2 [V0114, 10-[(3S)-1-azabicyclo[2.2.2]oct-3-ylmethyl]-10H-phenothiazine] | −63% | −58% | −72% | −71% | −58% to −72% | −15 ± 3% | −35 + 6% | −29 ± 3% | −71 + 5% | −51 ± 8% | −91 + 2% | −48 ± 6% | −97 + 2% | −7 ± 3% | −6 ± 1% | −14 ± 4% | antagonize the activating action | inverse agonists | 2490 ± 370 nM | strongly bind | Effect on the nine respiratory parameters evaluated (respiratory functions; 0.5, 50 and 100 mg/kg p.o., 360 minute test period): does not have a significant effect; Pupil diameter (respiratory functions; male, Wistar, 360 min): an increase of 50 mg/kg related to the administration was noted; inhibition at 10 µM (histamine H4 receptor [6]): 33%
c1ccc2c(c1)Sc1ccccc1N2C[C@H]1CN2CCC1CC2 [V0162, 10-[(3R)-1-azabicyclo[2.2.2]oct-3-ylmethyl]-10H-phenothiazine] | +2% | +25% | −5% | +12% |  |  |  | −17 + 3% | −9 ± 8% | −23 + 4% | −9 ± 9% | −31 + 12% | −4 ± 10% | −9 ± 3% | −29 ± 4% | −37 ± 5% | antagonize the activating action | inverse agonists | 1180 ± 160 nM | strongly bind | Effect on histamine edema (in words) ([1]; oral route): does not reduce this edema; inhibition at 10 µM (histamine H4 receptor [6]): 52%
S=C(NC1CCCCC1)N1CCC(c2cnc[nH]2)CC1 [thioperamide, reference compound] |  |  |  |  |  |  |  |  |  |  |  |  |  |  |  |  | antagonize the activating action | inverse agonists |  |  | 
